Literature values in US20150132345A1, “NITRIC OXIDE-SEQUESTERING TOPICAL FORMULATIONS” (priority 2011, published 2015).

Columns and labels:
Details in all cases: multiple 30 minutes treatments of 160 ppm nitric oxide
Staphylococcus aureus = system: Staphylococcus aureus
Escherichia coli = system: Escherichia coli
Pseudomonas aeruginosa = system: Pseudomonas aeruginosa

Structure (SMILES): [N]=O [nitric oxide]
- decrease in the bacterial load (Staphylococcus aureus): > 5 log 10 colony forming unit per milliliter (CFU/ml)
- decrease in the bacterial load (Escherichia coli): > 5 log 10 colony forming unit per milliliter (CFU/ml)
- decrease in the bacterial load (Pseudomonas aeruginosa): > 5 log 10 colony forming unit per milliliter (CFU/ml)
